Assay results taken from patent US20210207064A1, “COMPOUND FOR RESTORING CONTAMINATED SOIL OR CONTAMINATED WATER” (FNG RESEARCH CO., LTD., priority 2018, published 2021).

Tests used:
[1] = Heavy metal removal ability test in contaminated soil (ICP-MS), arsenic; conditions: for Arsenic (As) Adsorption amount: contaminated soil; for Arsenic (As) Adsorption rate: relative to EDTA control
Experimental: (§1) (1) Preparation of Soil Contaminated with Heavy Metal
(§2) After collecting and pulverizing uncontaminated soil, fine particles obtained by using a mesh were mixed with the aqueous heavy metal solution to prepare soil samples contaminated with heavy metals.
(§3) Each 3 ml of the prepared aqueous solution was added to a soil sample contaminated with heavy metals and mixed for 5 minutes.
(§4) 50 ml of distilled water was added to the contaminated soil mixed with the aqueous solution for restoring soil, stirred for 20 minutes, and settled for 1 hour, and a supernatant was prepared as a sample solution.
(§5) The prepared sample solution was analyzed for the heavy metal component using an Inductively Coupled Plasma Mass Spectrometer (ICP-MS) (Xseries™ 2, Thermo Fisher Scientific, UK).
(§6) Adsorption rate of heavy metals (%)=(Adsorption amount of Embodiment/Adsorption amount of Control)×100 Equation 1

[2] = tested on: human skin; assay: Skin irritation test of active ingredient (patch method, CTFA guidelines); format: in vivo; conditions: 24 h patch; for Test result (number of subject) (+) / Test result (number of subject) (++) / Test result (number of subject) (±) / Test result (number of subject) (−): 20 people; for Test result (number of subject) (+): (+) apparent reddening; for Test result (number of subject) (++): (++) more reddened and swollen; for Test result (number of subject) (±): (±) slightly reddish; for Test result (number of subject) (−): (−) no erythema
Experimental: A filter paper disk was placed in an 8 mm diameter, 10 panels of pin chamber.
After 24 hours, the pin chamber was removed, and skin conditions were visually observed. The degree and grade for skin irritation were calculated according to the following Equation 2, and the results are shown in Table 4 below.
[Criteria for Skin Irritation]
(−): No erythema or particularly no symptoms; (±): slightly reddish than the periphery; (+): Apparent reddening than periphery; (++): More reddened and swollen than periphery.
[Grade for Skin Irritation]
Degree of irritation 0-0.1: Grade I (unstimulated);
Degree of irritation 0.11-0.3: Grade II (weakly stimulated);
Degree of irritation 0.31-0.5: Grade III (moderately stimulated);
Degree of irritation 0.51 or more: Grade IV (strongly stimulated)

[3] = Heavy metal removal ability test in contaminated soil around a factory (WAK-Me test kit); conditions: 1.0 wt % aqueous solution, colour comparison test kit
Experimental: The contaminated soil around the factory in the industrial complex was collected, pulverized, and meshed to prepare fine particles of soil samples.
Each 3 ml of aqueous solutions for restoring soil was added to soil samples and mixed for 5 minutes.

[4] = Heavy metal removal ability test in contaminated soil (ICP-MS), nickel; conditions: for Nickel (Ni) Adsorption amount: contaminated soil; for Nickel (Ni) Adsorption rate: relative to EDTA control
Experimental: as §1, §2, §3, §4, §5, §6

[5] = Heavy metal removal ability test in contaminated soil (ICP-MS), cadmium; conditions: for Cadmium (Cd) Adsorption amount: contaminated soil; for Cadmium (Cd) Adsorption rate: relative to EDTA control
Experimental: as §1, §2, §3, §4, §5, §6

[6] = Formaldehyde (formalin) removing ability test (GC); conditions: 2.0% formaldehyde solution, 3 molar equivalents of compound, room temperature; for Formaldehyde GC Area, 30 min: after 30 min; for Formaldehyde GC Area, 180 min: after 180 min; for Formaldehyde GC Area, Initial: initial state

SMILES | Arsenic (As) Adsorption amount ([1]; content 0.5% aqueous solution) [ppm] | Arsenic (As) Adsorption rate ([1]; content 0.5%) [%] | Arsenic (As) Adsorption amount ([1]; content 1.0% aqueous solution) [ppm] | Arsenic (As) Adsorption rate ([1]; content 1.0%) [%] | Arsenic (As) Adsorption amount ([1]; content 2.0% aqueous solution) [ppm] | Arsenic (As) Adsorption rate ([1]; content 2.0%) [%] | Test result (number of subject) (+) ([2]; content 0.1 wt %) | Test result (number of subject) (++) ([2]; content 0.1 wt %) | Test result (number of subject) (±) ([2]; content 0.1 wt %) | Test result (number of subject) (−) ([2]; content 0.1 wt %) | Degree of irritation ([2]; content 0.1 wt %) | Grade for skin irritation ([2]; content 0.1 wt %) | Test result (number of subject) (+) ([2]; content 0.5 wt %) | Test result (number of subject) (++) ([2]; content 0.5 wt %) | Test result (number of subject) (±) ([2]; content 0.5 wt %) | Test result (number of subject) (−) ([2]; content 0.5 wt %) | Degree of irritation ([2]; content 0.5 wt %) | Grade for skin irritation ([2]; content 0.5 wt %) | Test result (number of subject) (+) ([2]; content 1.0 wt %) | Test result (number of subject) (++) ([2]; content 1.0 wt %) | further results
O=C(O)CN1CCN(CC(=O)O)CCN(CC(=O)O)CCN(CC(=O)O)CC1 [Embodiment 5, 2,2′,2″,2′″-(1,4,7,10-tetraazacyclododecane-1,4,7,10-tetrayl)tetraacetic Acid] | 41 | 164 | 46 | 184 | 53 | 212 | 0 | 0 | 0 | 20 | 0 | I (Degree of irritation 0-0.1: Grade I (unstimulated)) | 0 | 0 | 0 | 20 | 0 | I (Degree of irritation 0-0.1: Grade I (unstimulated)) | 0 | 0 | Test result (number of subject) (±) ([2]; content 1.0 wt %): 1; Test result (number of subject) (−) ([2]; content 1.0 wt %): 19; Degree of irritation ([2]; content 1.0 wt %): 0.05; Grade for skin irritation ([2]; content 1.0 wt %): I (Degree of irritation 0-0.1: Grade I (unstimulated)); Total amount (Cu, Zn, Mn, Ni, Cd) [3]: ≤5 ppm; Nickel (Ni) Adsorption amount ([4]; content 0.5% aqueous solution): 83 ppm; Nickel (Ni) Adsorption rate ([4]; content 0.5%): 169%; Nickel (Ni) Adsorption amount ([4]; content 1.0% aqueous solution): 85 ppm; Nickel (Ni) Adsorption rate ([4]; content 1.0%): 173%; Nickel (Ni) Adsorption amount ([4]; content 2.0% aqueous solution): 89 ppm; Nickel (Ni) Adsorption rate ([4]; content 2.0%): 182%; Cadmium (Cd) Adsorption amount ([5]; content 0.5% aqueous solution): 60 ppm; Cadmium (Cd) Adsorption rate ([5]; content 0.5%): 146%; Cadmium (Cd) Adsorption amount ([5]; content 1.0% aqueous solution): 66 ppm; Cadmium (Cd) Adsorption rate ([5]; content 1.0%): 161%; Cadmium (Cd) Adsorption amount ([5]; content 2.0% aqueous solution): 74 ppm; Cadmium (Cd) Adsorption rate ([5]; content 2.0%): 180%; Formaldehyde GC Area, 30 min [6]: 0.179 mAU*min; Formaldehyde GC Area, 180 min [6]: 0 mAU*min; Formaldehyde GC Area, Initial [6]: 0.305 mAU*min
O=C(O)c1ccc(N2CCN(c3ccc(C(=O)O)cc3)CCN(c3ccc(C(=O)O)cc3)CCN(c3ccc(C(=O)O)cc3)CC2)cc1 [Embodiment 6, 4,4′,4″,4′″-(1,4,7,10-tetraazacyclododecane-1,4,7,10-tetrayl)tetrabenzoic Acid] | 42 | 168 | 45 | 180 | 48 | 192 | 0 | 0 | 0 | 20 | 0 | I (Degree of irritation 0-0.1: Grade I (unstimulated)) | 0 | 0 | 0 | 20 | 0 | I (Degree of irritation 0-0.1: Grade I (unstimulated)) | 0 | 0 | Test result (number of subject) (±) ([2]; content 1.0 wt %): 1; Test result (number of subject) (−) ([2]; content 1.0 wt %): 19; Degree of irritation ([2]; content 1.0 wt %): 0.05; Grade for skin irritation ([2]; content 1.0 wt %): I (Degree of irritation 0-0.1: Grade I (unstimulated)); Total amount (Cu, Zn, Mn, Ni, Cd) [3]: ≤5 ppm; Nickel (Ni) Adsorption amount ([4]; content 0.5% aqueous solution): 81 ppm; Nickel (Ni) Adsorption rate ([4]; content 0.5%): 165%; Nickel (Ni) Adsorption amount ([4]; content 1.0% aqueous solution): 83 ppm; Nickel (Ni) Adsorption rate ([4]; content 1.0%): 169%; Nickel (Ni) Adsorption amount ([4]; content 2.0% aqueous solution): 87 ppm; Nickel (Ni) Adsorption rate ([4]; content 2.0%): 178%; Cadmium (Cd) Adsorption amount ([5]; content 0.5% aqueous solution): 61 ppm; Cadmium (Cd) Adsorption rate ([5]; content 0.5%): 149%; Cadmium (Cd) Adsorption amount ([5]; content 1.0% aqueous solution): 69 ppm; Cadmium (Cd) Adsorption rate ([5]; content 1.0%): 168%; Cadmium (Cd) Adsorption amount ([5]; content 2.0% aqueous solution): 77 ppm; Cadmium (Cd) Adsorption rate ([5]; content 2.0%): 188%; Formaldehyde GC Area, 30 min [6]: 0.183 mAU*min; Formaldehyde GC Area, 180 min [6]: 0 mAU*min; Formaldehyde GC Area, Initial [6]: 0.305 mAU*min
O=C(O)c1cncc(N2CCN(c3cncc(C(=O)O)c3)CCN(c3cncc(C(=O)O)c3)CCN(c3cncc(C(=O)O)c3)CC2)c1 [Embodiment 7, 5,5′,5″,5′″-(1,4,7,10-tetraazacyclododecane-1,4,7,10-tetrayl)tetranicotinic Acid] | 41 | 164 | 45 | 180 | 51 | 204 | 0 | 0 | 0 | 20 | 0 | I (Degree of irritation 0-0.1: Grade I (unstimulated)) | 0 | 0 | 0 | 20 | 0 | I (Degree of irritation 0-0.1: Grade I (unstimulated)) | 0 | 0 | Test result (number of subject) (±) ([2]; content 1.0 wt %): 0; Test result (number of subject) (−) ([2]; content 1.0 wt %): 20; Degree of irritation ([2]; content 1.0 wt %): 0; Grade for skin irritation ([2]; content 1.0 wt %): I (Degree of irritation 0-0.1: Grade I (unstimulated)); Total amount (Cu, Zn, Mn, Ni, Cd) [3]: ≤5 ppm; Nickel (Ni) Adsorption amount ([4]; content 0.5% aqueous solution): 92 ppm; Nickel (Ni) Adsorption rate ([4]; content 0.5%): 188%; Nickel (Ni) Adsorption amount ([4]; content 1.0% aqueous solution): 97 ppm; Nickel (Ni) Adsorption rate ([4]; content 1.0%): 198%; Nickel (Ni) Adsorption amount ([4]; content 2.0% aqueous solution): 102 ppm; Nickel (Ni) Adsorption rate ([4]; content 2.0%): 208%; Cadmium (Cd) Adsorption amount ([5]; content 0.5% aqueous solution): 62 ppm; Cadmium (Cd) Adsorption rate ([5]; content 0.5%): 151%; Cadmium (Cd) Adsorption amount ([5]; content 1.0% aqueous solution): 72 ppm; Cadmium (Cd) Adsorption rate ([5]; content 1.0%): 176%; Cadmium (Cd) Adsorption amount ([5]; content 2.0% aqueous solution): 76 ppm; Cadmium (Cd) Adsorption rate ([5]; content 2.0%): 185%; Formaldehyde GC Area, 30 min [6]: 0.181 mAU*min; Formaldehyde GC Area, 180 min [6]: 0 mAU*min; Formaldehyde GC Area, Initial [6]: 0.305 mAU*min
